IC50, melting point and plasma glucose concentration data for 13 compounds are collected here from PMC4105438, “Novel Benzoxazine-Based Aglycones Block Glucose Uptake In Vivo by Inhibiting Glycosidases” (PLoS ONE, 2014).

Where “and” joins values, the source holds several entries; their conditions need not be identical. Equal values may be shown once. Where only a bound is given, the exact number is not on record here.

The target in data set [1] is T1, Porcine pancreatic α-amylase (Sus scrofa, UniProt P00690).
T1 construct: purchased SRL, Mumbai (India)
T1 sequence (P00690 16-511): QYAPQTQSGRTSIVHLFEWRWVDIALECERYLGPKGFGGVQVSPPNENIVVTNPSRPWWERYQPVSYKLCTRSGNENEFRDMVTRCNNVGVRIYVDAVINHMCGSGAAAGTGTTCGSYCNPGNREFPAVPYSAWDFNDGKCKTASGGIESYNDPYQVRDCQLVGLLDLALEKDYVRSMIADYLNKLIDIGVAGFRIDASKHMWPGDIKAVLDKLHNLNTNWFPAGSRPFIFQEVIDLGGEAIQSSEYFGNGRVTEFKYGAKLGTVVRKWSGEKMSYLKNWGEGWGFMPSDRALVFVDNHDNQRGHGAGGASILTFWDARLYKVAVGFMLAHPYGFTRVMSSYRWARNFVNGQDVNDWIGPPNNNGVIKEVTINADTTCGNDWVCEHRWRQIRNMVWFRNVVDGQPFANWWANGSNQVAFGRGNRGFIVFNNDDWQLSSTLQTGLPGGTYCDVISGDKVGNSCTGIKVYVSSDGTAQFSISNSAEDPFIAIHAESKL
The experiment in a line: α-amylase inhibition assay (starch, DNS reagent). It counts as biochemical. The conditions noted are these: 0–100 µM, pre-incubation 10 min 37°C, pH 6.9; NS = not significant. As for the experimental part: Porcine pancreatic α-Amylase and Yeast α-Glucosidase were purchased from SRL, Mumbai (India). Glucose oxidase (GOD POD) kit was purchased from Piramal HealthCare Ltd, Mumbai (India). All other chemicals used were of analytical grade and purchased from Sigma Aldrich, St. Louis (USA) and SRL, Mumbai (India). […] Mass spectra were determined on a Shimadzu LC-MS. The elemental analyses were carried out using an Elemental Vario Cube CHNS rapid Analyzer. The progress of the reaction was monitored by TLC pre-coated silica gel G plates.
The α-amylase inhibition assay was performed according to a previous report. Porcine pancreatic α-amylase (3 units/mL) was dissolved in 0.1 M phosphate buffered saline, pH 6.9. […] The reaction was initiated by adding substrate solution (0.1% starch) to the incubation medium. After 10 min incubation, the reaction was stopped by adding 250 µL dinitrosalicylic (DNS) reagent (1% 3, 5-dinitrosalicylic acid, 0.2% phenol, 0.05% Na2SO3 and 1% NaOH in aqueous solution) to the reaction mixture. The reaction was terminated by keeping the reaction mixture in boiling water bath for 10 min. Thereafter, 250 µL of 40% potassium sodium tartarate solution was added to the mixtures to stabilize the colour. After cooling to room temperature in a cold water bath, the absorbance was recorded at 540 nm using a Varioskan multimode plate reader (Thermo Scientifics, USA). Acrabose was used as positive control. The percentage of inhibition was calculated using Abs Contol – Abs Sample ×100/Abs Control. Where Abs Control was the absorbance without sample, Abs sample was the absorbance of enzyme with compound.

The next data set addresses T2, α-Glucosidase (Saccharomyces cerevisiae, UniProt P53341).
T2 construct: purchased SRL, Mumbai (India)
Kind of data set: biochemical. The conditions noted are these: 0–100 µM, pre-incubation 10 min 37°C, pH 6.9; NS = not significant. As for the experimental part:
Porcine pancreatic α-Amylase and Yeast α-Glucosidase were purchased from SRL, Mumbai (India). Glucose oxidase (GOD POD) kit was purchased from Piramal HealthCare Ltd, Mumbai (India). All other chemicals used were of analytical grade and purchased from Sigma Aldrich, St. Louis (USA) and SRL, Mumbai (India). All IR spectra were obtained in KBr disc on a Shimadzu FT-IR 157 Spectrometer. ^1H and ^13C NMR spectra were recorded on a Bruker WH-200 (400 MZ) spectrometer in CDCl3 or DMSO-d6 as solvent, using TMS as an internal standard and chemical shifts are expressed as ppm. Mass spectra were determined on a Shimadzu LC-MS. The elemental analyses were carried out using an Elemental Vario Cube CHNS rapid Analyzer. The progress of the reaction was monitored by TLC pre-coated silica gel G plates.
The α-glucosidase inhibitory activities of synthesized compounds were evaluated using the method developed by Tsujii et al.. Briefly, α-glucosidase was dissolved in phosphate buffer (50 mM, pH 6.9) and pre-treated with various concentrations of 1,3-benzoxazine derivatives (0–100 µM) independently for 10 min at 37°C. The reaction was initiated by the addition of 50 µL of 5 mM p-nitrophenyl- α -D-glucopyranoside solution in phosphate buffer (50 mM, pH 6.9). The enzyme reaction was carried out at 37°C for 30 min. The reaction was terminated by the addition of Na2CO3 (1 M). The enzymatic activity of α-glucosidase was quantified by measuring the absorption at 405 nm using a Varioskan multimode plate reader (Thermo Scientifics, USA). The inhibitory effect of compounds was defined as inhibitory activity (%) = (Abs Control – Abs Compound treated)/Abs Control ×100. Concentration-response assays were used to determine the potency (IC50) of 1,3-benzoxazine derivatives based on the logistic analysis of the concentration-response curve using Microsoft Excel.

The target in another data set is rat intestinal maltase. Kind of data set: Intestinal α-glucosidase inhibitory assay, maltose as substrate. It counts as biochemical. The conditions noted are these: rat intestinal acetone powder, maltose 37 mM, 30 min. As for the experimental part:
Intestinal α-glucosidase activity was determined by measuring the amount of glucose hydrolyzed from maltose or sucrose. Briefly, rat intestinal acetone powder was homogenized in 0.9% saline and the suspension was centrifuged at 10,000 g for 30 min at 4°C and the supernatant obtained was used as enzyme source. […] After the respective incubation period, reaction was terminated by keeping the samples in boiling water bath for 10 min. The concentration of glucose released from the reaction mixtures was determined by using Glucose oxidase (GOD POD) kit according to the manufacturer’s protocol. Results were expressed as percentage inhibition of intestinal maltase/sucrase activity.

In data set [2] the test system is overnight fasted Wistar rats. The experiment in a line: Oral maltose tolerance test. It counts as in vivo, rat. The conditions noted are these: acarbose 3 mg/kg oral, maltose 3 g/kg, compared to maltose control. The source says:
(§1) Adult Wistar rats weighing 150–180 g were collected from the University Central Animal Facility and housed under a controlled environment. All animal experiments were approved by the Institutional Animal Ethical Committee (Order No : MGZ/2620/2011-12 Dated 31-01-2012; UOM/IAEC/18/2011), Department of Studies in Zoology, University of Mysore, Mysore and were in accordance with the guidelines of the Committee for the Purpose of Control and Supervision of Experiments on Animals (CPCSEA).
(§2) The experimental animals were randomly divided into 11 groups each consisting of 5 rats. […] Blood was collected from the tail vein to the tubes containing anticoagulant (2.5% trisodium citrate and 1.37% citric acid in the ratio 1∶5; anti-coagulant: blood) at time point 0 (just before sucrose/maltose administration), and subsequently at 30, 60, 90, 120 and 180 min after substrate (sucrose/maltose) administration. Plasma was separated by centrifuging the samples at 2000 rpm for 10 min and stored at −20°C until analysis. Plasma glucose concentration was determined by using the Glucose oxidase (GOD POD) kit according to the manufacturer’s protocol.

Data set [3] has as its system overnight fasted Wistar rats. Kind of data set: Oral sucrose tolerance test. It counts as in vivo, rat. The conditions noted are these: acarbose 3 mg/kg oral, sucrose 3 g/kg, compared to sucrose control.
Excerpt: as §1, §2

T2 sequence (P53341 whole entry): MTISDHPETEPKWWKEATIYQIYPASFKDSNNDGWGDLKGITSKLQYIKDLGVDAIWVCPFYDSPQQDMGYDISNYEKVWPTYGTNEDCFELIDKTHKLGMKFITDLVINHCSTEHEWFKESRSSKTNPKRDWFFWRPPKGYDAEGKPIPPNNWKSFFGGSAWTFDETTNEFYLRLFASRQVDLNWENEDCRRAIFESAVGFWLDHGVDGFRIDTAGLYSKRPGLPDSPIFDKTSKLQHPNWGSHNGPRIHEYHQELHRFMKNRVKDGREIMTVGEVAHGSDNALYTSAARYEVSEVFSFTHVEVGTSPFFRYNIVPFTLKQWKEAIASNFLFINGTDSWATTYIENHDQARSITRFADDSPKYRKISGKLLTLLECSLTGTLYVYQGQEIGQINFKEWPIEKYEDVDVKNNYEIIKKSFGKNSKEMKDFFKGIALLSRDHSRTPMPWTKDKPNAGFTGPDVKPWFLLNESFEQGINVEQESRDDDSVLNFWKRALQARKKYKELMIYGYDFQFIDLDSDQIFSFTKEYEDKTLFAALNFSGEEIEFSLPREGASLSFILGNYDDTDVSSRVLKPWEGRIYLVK

In the case of `Cc1ccc2c(c1)COC(c1c(C)[nH]c3ccccc13)N2` (centres unmarked) [compound 11, 6-methyl-2-(2-methyl-1H-indol-3-yl)-2,4-dihydro-1H-benzo[d][1,3]oxazine], the IC50 is > 100 µM in data set [1] and 23.8 ± 0.1 µM against α-Glucosidase.
Taken in the same sequence, the figures for `N#Cc1ccccc1-c1ccc(Cn2cc(C3Nc4ccccc4CO3)c3ccccc32)cc1` (centres unmarked) [compound 4] were > 100 µM and > 100 µM.
With `CCCCc1nc(Cl)c(C2Nc3ccccc3CO2)[nH]1` (centres unmarked) [compound 6, 2-(2-butyl-4-chloro-1H-imidazol-5-yl)-2,4-dihydro-1H-benzo[d][1,3]oxazine], the melting point was in the range of 80 to 82 °C. In data set [1], the IC50 was 18.5 ± 0.1 µM. Also, the IC50 against α-Glucosidase is 16 µM and 16.7 µM.
With `Oc1ccc(C2Nc3ccccc3CO2)cc1` (centres unmarked) [compound 1, 4-(2,4-dihydro-1H-benzo[d][1,3]oxazin-2-yl)phenol], the melting point lay within 160 to 162 °C. The compound further came in with an IC50 in data set [1] of 20.4 ± 0.2 µM. At α-Glucosidase, this compound yielded an IC50 of 17.1 ± 0.1 µM.
Take `Clc1ccc2c(c1)NC(c1c[nH]c3ccccc13)OC2` (centres unmarked) [compound 8, 7-chloro-2-(1H-indol-3-yl)-2,4-dihydro-1H-benzo[d][1,3]oxazine]: the IC50 in data set [1] is 26.4 ± 0.5 µM; on α-Glucosidase it was 27.7 ± 1 µM.
Compound `O=c1c(C2Nc3ccccc3CO2)coc2ccccc12` (centres unmarked) [compound 5, 3-(2,4-dihydro-1H-benzo[d][1,3]oxazin-2-yl)-4H-chromen-4-one] gave a melting point of 142 to 144 °C. Besides, in data set [1], the IC50 was found to be 23.3 ± 0.5 µM. Also, at α-Glucosidase, the IC50 was > 100 µM.
Turning to `c1ccc2c(c1)COC(c1c[nH]c3ccccc13)N2` (centres unmarked) [compound 2, 2-(1H-indol-3-yl)-2,4-dihydro-1H-benzo[d][1,3]oxazine], the results for the IC50 (in data set [1]; on α-Glucosidase) were 59.2 ± 1 µM and 32 ± 0.2 µM, respectively.
Taken in the same sequence, the figures for `Clc1ccc2c(c1)COC(c1c(-c3ccccc3)[nH]c3ccccc13)N2` (centres unmarked) [compound 9, 6-chloro-2-(2-phenyl-1H-indol-3-yl)-2,4-dihydro-1H-benzo[d][1,3]oxazine] were 22.2 ± 0.1 µM and 27.8 ± 0.2 µM.
Take `Cc1ccc2c(c1)COC(c1c(-c3ccccc3)[nH]c3ccccc13)N2` (centres unmarked) [compound 12, 6-methyl-2-(2-phenyl-1H-indol-3-yl)-2,4-dihydro-1H-benzo[d][1,3]oxazine]: the IC50 was determined as 17.6 ± 0.3 µM in data set [1] and 20.5 ± 0.5 µM against α-Glucosidase.
Taken in the same sequence, the figures for `Cc1[nH]c2ccccc2c1C1Nc2ccccc2CO1` (centres unmarked) [compound 3, 2-(2-methyl-1H-indol-3-yl)-2,4-dihydro-1H-benzo[d][1,3]oxazine] were 10.6 ± 0.3 µM and 21.6 ± 0.1 µM.
In turn, `O=c1c(C2Nc3ccc(Cl)cc3CO2)coc2ccccc12` (centres unmarked) [compound 10, 3-(6-chloro-2,4-dihydro-1H-benzo[d][1,3]oxazin-2-yl)-4H-chromen-4-one] gave a melting point of 141 to 143 °C. In data set [1], the IC50 is > 100 µM. At α-Glucosidase, this compound came in with an IC50 of 31.9 ± 0.8 µM.
Regarding `Cc1ccc2c(c1)COC(c1coc3ccccc3c1=O)N2` (centres unmarked) [compound 13, 3-(6-methyl-2,4-dihydro-1H-benzo[d][1,3]oxazin-2-yl)-4H-chromen-4-one], the melting point was 202 to 204 °C. In data set [1], the IC50 is 51 ± 0.3 µM. The half-maximal inhibitory concentration (IC50) against α-Glucosidase is > 100 µM.
The compound `C[C@H]1O[C@H](O[C@H]2[C@H](O)[C@@H](O)[C@@H](O[C@H]3[C@H](O)[C@@H](O)C(O)O[C@@H]3CO)O[C@@H]2CO)[C@H](O)[C@@H](O)[C@@H]1N[C@H]1C=C(CO)[C@@H](O)[C@H](O)[C@H]1O` (some centres unmarked) [Acarbose, reference compound] came in with an IC50 against rat intestinal maltase of 3.5 µM. Further, the plasma glucose concentration result in data set [2] is “significantly reduced the plasma glucose concentration at 30, 60, 90 min time intervals”; in data set [3], “only significant at 60 and 90 min time points”.
